According to US20190225650A1, “PEPTIDOMIMETIC MACROCYCLES AND USE THEREOF IN REGULATING HIF1ALPHA” (AILERON THERAPEUTICS, INC., priority 2013, published 2019):
Bridge positions count the residues as written; N and C are the ends. Square brackets hold non-standard residues; d marks the D form. Peptide text beside a SMILES is read from it. S5 = C=CCCC[C@](C)(N)C(=O)O; Nle = CCCC[C@H](N)C(=O)O; Dap = NC[C@H](N)C(=O)O

Test system: HRE-bla ME-180 cells
Experiment: Reporter gene assay (HRE-bla ME-180 HIF reporter, GeneBLAzer)
Type: cell-based, human
Settings: for EC50: 24 hour normoxia
Description: The following reagents were used:
• DMEM+GutaMAX: (#10569044, Invitrogen) • Black clear bottom plates: (#3603, Costar) • HRE-bla-ME-180 cell line: (#K1644, Invitrogen) • Gene-Blazer reagent & protocol: (#K1096, Invitrogen) • Plate reader: Biotek Synergy 2 • Chetomin: (C9623, Sigma)
4 hours prior to experiment: HRE-bla ME-180 cells were seeded at a density of 20,000 cells/well in a volume of 180 μl in black clear bottom 96-well plates. 180 μl of assay medium was added to the cell-free control wells. Incubation was conducted at 37° C., 5% CO2 for 4 hours.
Diluted chetomin was used as a positive control. Chetomin was diluted in 100% DMSO to a 10 mM stock concentration. A 1 mM stock of chetomin was prepared in 100% DMSO. Then the 1 mM chetomin stock was serially diluted in 1:4 in 100% DMSO. Finally, 50, 12.5, 3.125, 0.78, 0.2, 0.05 μM stock of chetomin in 5% DMSO/water were prepared by adding 114 μL water+6 μL chetomin in DMSO.
Test peptides were diluted before use. The test peptides were diluted in 100% DMSO to a 10 mM stock concentration. Then each 10 mM peptide stock was diluted in 1:3 in 100% DMSO. Finally, 300, 100, 33.3, 11.1, 3.7, 1.2 μM stock of each peptide in 5% DMSO/water were prepared by adding 129.2 μL water+4 μL peptide in DMSO.
20 μl of peptide, chetomin dilution, or DMSO/water control were added to the appropriate wells of a plate to achieve 200 μL final volumes in 0.3% DMSO/media. The plate was first incubated for 18-20 hours in normoxia incubator (37° C. in humidified 5% CO2, 20% O2 atmosphere). Then the plate was transferred to hypoxia incubator for 24 hours (37° C. in humidified 5% CO2, 1% O2 atmosphere)
6× LiveBLAzer™-FRET B/G (CCF4-AM) Substrate Mixture was prepared according to CellSensor™ HRE-bla ME-180 Cell-based Assay Protocol (Invitrogen) and added into each well. Solution A (CCF4-AM) was reconstituted in DMSO to a working concentration of 1 mM, divided in aliquots, and stored at −20° C. The 6× LiveBLAzer-FRET B/G (CCF4-AM) Substrate mixture was prepared by mixing 6 μl of Solution A, 60 μl of Solution B, and 934 μl Solution C.
The plates were removed from incubator and equilibrated to RT for a few minutes. Then 20 μl of 6× Substrate mixture was added to each well. The plates were then incubated at room temperature for 3 hr in the dark and read at 409 Ex/460Em and 409Ex/530Em using the “GeneBlazer-Tungsten with export” program on the Synergy 2.
The average percentage of maximum inhibition was obtained by comparing the peptide treated cells (30 μM) to DMSO vehicle control treated cells. The results are shown in the columns “ME-180 HIF Reporter EC50 (μM) −24 hr normoxia” and “18 h Avg % max inhibition at top conc (HIF Rptr-24 hrsnormoxia) (μM)” of Table 6.

| Structure (SMILES) | EC50 [µM] | 18 h Avg % max inhibition at top conc (HIF Rptr-24 hrs normoxia) (μM) |
| --- | --- | --- |
| CCCC[C@H](NC(=O)[C@H](C)NC(=O)[C@@H](NC(=O)[C@H](CCC(=O)O)NC(=O)[C@H](CCC(=O)O)NC(=O)[C@H](CC(=O)O)NC(=O)[C@@H](NC(=O)[C@H](Cc1ccccc1)NC(C)=O)[C@@H](C)CC)C(C)C)C(=O)N[C@@]1(C)CCCC=CCCC[C@@](C)(C(=O)N[C@@H](CCCC)C(=O)N[C@@H](C)C(=O)N[C@@H](CC(C)C)C(=O)N[C@@H](CC(=O)O)C(=O)N[C@@H](CCCNC(=N)N)C(=O)N[C@H](C(N)=O)[C@@H](C)CC)NC(=O)[C@H]([C@@H](C)CC)NC(=O)[C@H](C(C)C)NC(=O)[C@H](CC(C)C)NC1=O [SP-15] (Ac-FIDEEVA[Nle][S5]LVI[S5][Nle]ALDRI-NH2; staple 9-13) | ≤ 5 | ++++ (≥50: ++++) |
| CCCC[C@H](NC(=O)[C@H](CC(C)C)NC(=O)[C@@H](NC(=O)[C@H](CCC(=O)O)NC(=O)[C@H](CCC(=O)O)NC(=O)[C@H](CO)NC(=O)[C@@H](NC(=O)[C@H](Cc1ccccc1)NC(C)=O)[C@@H](C)CC)C(C)C)C(=O)N[C@@]1(C)CCCC=CCCC[C@@](C)(C(=O)N[C@@H](CCCC)C(=O)N[C@@H](C)C(=O)N[C@@H](CC(C)C)C(=O)N[C@@H](CC(=O)O)C(=O)N[C@@H](CCCNC(=N)N)C(=O)N[C@H](C(N)=O)[C@@H](C)CC)NC(=O)[C@H]([C@@H](C)CC)NC(=O)[C@H](C(C)C)NC(=O)[C@H](CC(C)C)NC1=O [SP-46] (Ac-FISEEVL[Nle][S5]LVI[S5][Nle]ALDRI-NH2; staple 9-13) | 15 to 30 | +++ (≤25 but <50: +++) |
| CCCC[C@H](NC(=O)[C@H](CC(C)C)NC(=O)[C@@H](NC(=O)[C@H](CCC(=O)O)NC(=O)[C@H](CCC(=O)O)NC(=O)[C@H](CC(=O)O)NC(=O)[C@@H](NC(=O)[C@H](Cc1ccccc1)NC(C)=O)[C@@H](C)CC)C(C)C)C(=O)N[C@@]1(C)CCCC=CCCC[C@@](C)(C(=O)N[C@@H](CCCC)C(=O)N[C@@H](C)C(=O)N[C@@H](CC(C)C)C(=O)N[C@@H](CC(=O)O)C(=O)N[C@@H](CCCNC(=N)N)C(=O)N[C@H](C(N)=O)[C@@H](C)CC)NC(=O)[C@H]([C@@H](C)CC)NC(=O)[C@H](C(C)C)NC(=O)[C@H](CC(=O)O)NC1=O [SP-35] (Ac-FIDEEVL[Nle][S5]DVI[S5][Nle]ALDRI-NH2; staple 9-13) | > 30 | + (<10: +) |
| CCCC[C@H](NC(=O)[C@H](CC(C)C)NC(=O)[C@@H](NC(=O)[C@H](CCC(=O)O)NC(=O)[C@H](CCC(=O)O)NC(=O)[C@H](CC(=O)O)NC(=O)[C@@H](NC(=O)[C@H](Cc1ccccc1)NC(C)=O)[C@@H](C)CC)C(C)C)C(=O)N[C@@]1(C)CCCC=CCCC[C@@](C)(C(=O)N[C@@H](CCCC)C(=O)N[C@@H](C)C(=O)N[C@@H](C)C(=O)N[C@@H](CC(=O)O)C(=O)N[C@@H](CCCNC(=N)N)C(=O)N[C@H](C(N)=O)[C@@H](C)CC)NC(=O)[C@H]([C@@H](C)CC)NC(=O)[C@H](C(C)C)NC(=O)[C@H](CC(C)C)NC1=O [SP-22] (Ac-FIDEEVL[Nle][S5]LVI[S5][Nle]AADRI-NH2; staple 9-13) | 5 to 15 | ++++ (≥50: ++++) |
| CCCC[C@H](NC(=O)[C@H](CC(C)C)NC(=O)[C@H](CC(=O)O)NC(=O)[C@H](CCC(=O)O)NC(=O)[C@H](CCC(=O)O)NC(=O)[C@H](CC(=O)O)NC(=O)[C@@H](NC(=O)[C@H](Cc1ccccc1)NC(C)=O)[C@@H](C)CC)C(=O)N[C@@]1(C)CCCC=CCCC[C@@](C)(C(=O)N[C@@H](CCCC)C(=O)N[C@@H](C)C(=O)N[C@@H](CC(C)C)C(=O)N[C@@H](CC(=O)O)C(=O)N[C@@H](CCCNC(=N)N)C(=O)N[C@H](C(N)=O)[C@@H](C)CC)NC(=O)[C@H]([C@@H](C)CC)NC(=O)[C@H](C(C)C)NC(=O)[C@H](CC(C)C)NC1=O [SP-32] (Ac-FIDEEDL[Nle][S5]LVI[S5][Nle]ALDRI-NH2; staple 9-13) | 15 to 30 | +++ (≤25 but <50: +++) |
| CCCC[C@H](NC(=O)[C@H](CC(C)C)NC(=O)[C@@H](NC(=O)[C@H](CCC(=O)O)NC(=O)[C@H](CCC(=O)O)NC(=O)[C@H](CC(=O)O)NC(=O)[C@@H](NC(=O)[C@H](Cc1ccccc1)NC(C)=O)[C@@H](C)CC)C(C)C)C(=O)N[C@@]1(C)CCCC=CCCC[C@@](C)(C(=O)N[C@@H](CCCC)C(=O)N[C@@H](CCC(=O)O)C(=O)N[C@@H](CC(C)C)C(=O)N[C@@H](CC(=O)O)C(=O)N[C@@H](CCCNC(=N)N)C(=O)N[C@H](C(N)=O)[C@@H](C)CC)NC(=O)[C@H]([C@@H](C)CC)NC(=O)[C@H](C(C)C)NC(=O)[C@H](CC(C)C)NC1=O [SP-39] (Ac-FIDEEVL[Nle][S5]LVI[S5][Nle]ELDRI-NH2; staple 9-13) | 15 to 30 | +++ (≤25 but <50: +++) |

The next lines start with results.

| EC50 [µM] | Structure (SMILES) | 18 h Avg % max inhibition at top conc (HIF Rptr-24 hrs normoxia) (μM) |
| --- | --- | --- |
| 5 to 15 | CCCC[C@H](NC(=O)[C@H](CC(C)C)NC(=O)[C@@H](NC(=O)[C@H](CO)NC(=O)[C@H](CCC(=O)O)NC(=O)[C@H](CC(=O)O)NC(=O)[C@@H](NC(=O)[C@H](Cc1ccccc1)NC(C)=O)[C@@H](C)CC)C(C)C)C(=O)N[C@@]1(C)CCCC=CCCC[C@@](C)(C(=O)N[C@@H](CCCC)C(=O)N[C@@H](C)C(=O)N[C@@H](CC(C)C)C(=O)N[C@@H](CC(=O)O)C(=O)N[C@@H](CCCNC(=N)N)C(=O)N[C@H](C(N)=O)[C@@H](C)CC)NC(=O)[C@H]([C@@H](C)CC)NC(=O)[C@H](C(C)C)NC(=O)[C@H](CC(C)C)NC1=O [SP-47] (Ac-FIDESVL[Nle][S5]LVI[S5][Nle]ALDRI-NH2; staple 9-13) | ++++ (≥50: ++++) |
| > 30 | CCCC[C@H](NC(=O)[C@H](CC(C)C)NC(=O)[C@@H](NC(=O)[C@H](CCC(=O)O)NC(=O)[C@H](CCC(=O)O)NC(=O)[C@H](CC(=O)O)NC(=O)[C@@H](NC(=O)[C@H](Cc1ccccc1)NC(C)=O)[C@@H](C)CC)C(C)C)C(=O)N[C@@]1(C)CCCC=CCCC[C@@](C)(C(=O)N[C@@H](CN)C(=O)N[C@@H](C)C(=O)N[C@@H](CC(C)C)C(=O)N[C@@H](CC(=O)O)C(=O)N[C@@H](CCCNC(=N)N)C(=O)N[C@H](C(N)=O)[C@@H](C)CC)NC(=O)[C@H]([C@@H](C)CC)NC(=O)[C@H](C(C)C)NC(=O)[C@H](CC(C)C)NC1=O [SP-66] (Ac-FIDEEVL[Nle][S5]LVI[S5][Dap]ALDRI-NH2; staple 9-13) | ++ (≤10 but <25: ++) |
| 5 to 15 | CC[C@H](C)[C@H](NC(C)=O)C(=O)N[C@@H](CC(=O)O)C(=O)N[C@@H](CCC(=O)O)C(=O)N[C@@H](CCC(=O)O)C(=O)N[C@H](C(=O)N[C@@H](CC(C)C)C(=O)N[C@@H](CCSC)C(=O)N[C@@]1(C)CCCC=CCCC[C@@](C)(C(=O)N[C@@H](CCSC)C(=O)NCC(=O)N[C@@H](CC(C)C)C(=O)N[C@@H](CC(=O)O)C(=O)N[C@@H](CCCNC(=N)N)C(=O)N[C@H](C(=O)N[C@@H](CCCCN)C(=O)N[C@@H](CCC(=O)O)C(=O)N[C@@H](CC(C)C)C(=O)N2CCC[C@H]2C(=O)N[C@@H](CCC(=O)O)C(=O)N[C@@H](CC(C)C)C(=O)N[C@@H](Cc2c[nH]c3ccccc23)C(=O)N[C@@H](CC(C)C)C(N)=O)[C@@H](C)CC)NC(=O)[C@H]([C@@H](C)CC)NC(=O)[C@H](C(C)C)NC(=O)[C@H](CC(C)C)NC1=O)C(C)C [SP-86] (Ac-IDEEVLM[S5]LVI[S5]MGLDRIKELPELWL-NH2; staple 8-12) | ++++ (≥50: ++++) |
| > 30 | CC[C@H](C)[C@H](NC(=O)[C@H](Cc1ccccc1)NC(C)=O)C(=O)N[C@@H](CC(=O)O)C(=O)N[C@@H](CCC(=O)O)C(=O)N[C@@H](CCC(=O)O)C(=O)N[C@H](C(=O)N[C@@H](CC(C)C)C(=O)N[C@@H](C)C(=O)N[C@@]1(C)CCCC=CCCC[C@@](C)(C(=O)N[C@@H](C)C(=O)N[C@@H](C)C(=O)N[C@@H](CC(C)C)C(=O)N[C@@H](CC(=O)O)C(N)=O)NC(=O)[C@H]([C@@H](C)CC)NC(=O)[C@H](C(C)C)NC(=O)[C@H](CC(C)C)NC1=O)C(C)C [SP-60] (Ac-FIDEEVLA[S5]LVI[S5]AALD-NH2; staple 9-13) | + (<10: +) |
